Legend:
Assay type in all cases: physicochemical
[1] = BET specific surface area by nitrogen adsorption (TRISTAR 2000); conditions: for BET specific surface area, effect of slurry composition: external T=18 °C, FIG. 10
Text: Through these tests, it was established that drug substance Brunnauer-Emmett-Teller specific surface area (“BET specific surface area” or “BET SSA”) in a particular range is desirable to obtain desirable dissolution properties in the final product. BET specific surface area can be measured by physical adsorption methods known to one of skill in the art. All measurements described herein were made on a TRISTAR 2000 instrument (MICROMERITICS, Norcross, Ga.) using the nitrogen adsorption method, as described in Webb, P. A., “Surface Area, Porosity, and Related Physical Characteristics,” in PHARMACEUTICAL DOSAGE FORMS: TABLETS, VOLUME 3: MANUFACTURE AND PROCESS CONTROL 277-302 (eds. L. Augsburger & S. W. Hoag Informa Healthcare USA Inc. 2008). In the nitrogen absorption method, a tube containing a solid sample is preconditioned at a certain temperature for a predetermined amount of time to remove gases/vapors adsorbed on the surface of the solids. For the examples described herein, the equilibration temperature was 30° C., and the time was 16 hours. The tube is then placed into the instrument and evacuated. After evacuation, the tube is submerged into liquid nitrogen, and a known amount of nitrogen (N2) gas is introduced in the tube by means of a control valve. The N2 gas expands and fills the free volume of the tube. The pressure P of the tube will become equal to nRT/V, where n is the number of N2 gas molecules introduced in the sample tube, R is the universal gas constant, T is the absolute temperature and V is the tube free volume. By repeating the evacuation and filling procedure for different amounts of N2 gas, a BET isotherm curve can be obtained, and the BET specific surface area of the solids can be calculated from the slope of the BET curve, as described in Webb (supra).

[2] = Dissolution testing of drug product, USP Dissolution Apparatus 2 (paddle); conditions: 45 minutes; drug substance BET SSA 12.06 m^2/g
Protocol: The resulting drug products were subjected to dissolution testing in a USP Dissolution Apparatus 2 (DISTEK, New Brunswick, N.J.), equipped with a paddle (see United States Pharmacopeia (USP) General Chapter 711 Dissolution). 50 millimoles of phosphate buffer (pH=6.8) containing 0.1% sodium dodecyl sulphate was used. Testing was performed at physiological temperatures (37.0° C.±0.5° C.).

[3] = Bulk and tap density of drug substance powder (morphology study)
Protocol: A solution of the product of Example 1, Procedure A2 (608.5 g) dissolved in MTBE (2450 mL) was prepared. The solution was added into the mixing chamber at a rate of 840 mL/min and combined with n-heptane flowing at a rate of 3400 mL/min to form a slurry. The precipitation temperature was controlled at 20° C. After precipitation, one sample was filtered at 20° C. and a second sample was heated to 50° C. at a rate of 1° C./min. The drug substance particle morphology was examined by Scanning Electron Microscopy (SEM); images of the particles are provided as FIGS. 7A and 7B, respectively.
The difference in morphology between the two […] samples is readily apparent. The sample filtered at 20° C., shown in FIG. 7A, retained the particle morphology obtained during precipitation. The sample heated to 50° C., shown in FIG. 7B, consists of particles that are fused together; some particles look melted. The particles having different morphologies also had differences in drug substance physical attributes.

[4] = aging process, sample: After 1% of batch distilled
[5] = aging process, sample: After 2% of batch distilled
[6] = aging process, sample: After 4% of batch distilled
[7] = aging process, sample: After 6 hours at aging temperature
[8] = aging process, sample: After distillation
[9] = aging process, sample: After precipitation
[10] = aging process, sample: Final dry cake
[11] = Example 8, equilibration temperature 20 °C (filtered at 20 °C)
[12] = Example 8, equilibration temperature 50 °C (heated to 50 °C at 1 °C/min)

## CC(C)(C)NC(=O)N[C@H](C(=O)N1C[C@H]2[C@@H]([C@H]1C(=O)NC(CC1CCC1)C(=O)C(N)=O)C2(C)C)C(C)(C)C (stereo partly shown) [Batch 1]
[1]; [4]
  BET SSA: 9.18 m^2/g
[1]; [5]
  BET SSA: 9.13 m^2/g
[1]; [6]
  BET SSA: 9.05 m^2/g
[1]; [7]
  BET SSA: 9.60 m^2/g
[1]; [8]
  BET SSA: 8.88 m^2/g
[1]; [9]
  BET SSA: 56.70 m^2/g
[1]; [10]
  BET SSA: 9.30 m^2/g

## CC(C)(C)NC(=O)N[C@H](C(=O)N1C[C@H]2[C@@H]([C@H]1C(=O)NC(CC1CCC1)C(=O)C(N)=O)C2(C)C)C(C)(C)C (stereo partly shown) [Batch 2]
[1]; [4]
  BET SSA: 7.14 m^2/g
[1]; [5]
  BET SSA: 6.90 m^2/g
[1]; [6]
  BET SSA: 6.88 m^2/g
[1]; [7]
  BET SSA: 7.36 m^2/g
[1]; [8]
  BET SSA: 6.92 m^2/g
[1]; [9]
  BET SSA: 46.94 m^2/g
[1]; [10]
  BET SSA: 7.61 m^2/g

## CC(C)(C)NC(=O)N[C@H](C(=O)N1C[C@H]2[C@@H]([C@H]1C(=O)NC(CC1CCC1)C(=O)C(N)=O)C2(C)C)C(C)(C)C (stereo partly drawn) [boceprevir, (1R,5S)—N-[3-amino-1-(cyclobutylmethyl)-2,3-dioxopropyl]-3-[2(S)-[[[(1,1-dimethylethyl)amino]carbonyl]amino]-3,3-dimethyl-1-oxobutyl]-6,6-dimethyl-3-azabicyclo[3.1.0]hexan-2(S)-carboxamide]
[2]
  % Dissolved: did not consistently meet or exceed a 75% dissolution criterion
[1]; Example 2, laboratory scale tee mixer, slurry filtered immediately after precipitation and dried
  BET specific surface area: about 94 m^2/g
[1]; Example 6, distillation profile of Table 3
  BET specific surface area: 2.93 m^2/g
[1]; Example 6, distillation profile of Table 11 (25-27.0 °C)
  BET specific surface area: 2.01 m^2/g
[1]; Example 7, drug substance used for the high BET SSA study
  BET specific surface area: 12.06 m^2/g
[1]; Example 8
  BET specific surface area, powder of FIG. 7A (20 °C) compared to powder of FIG. 7B (50 °C): 10 times
[1]; [11]
  BET SSA: 19.11 m^2/g
[1]; [12]
  BET SSA: 1.82 m^2/g
[1]; Example 9, slurries from -15 °C held at external temperatures of 5 °C and 0 °C, FIG. 8
  final BET specific surface area as a function of equilibration temperature: lower for the higher equilibration temperature
[1]; Example 10, aging temperature 14 °C, after 3 hours of holding, FIG. 6
  changes in BET specific surface area on holding at aging temperature: very small changes
[1]; Example 12, first slurry (low solvent/high anti-solvent)
  BET specific surface area, effect of slurry composition: higher drug substance BET specific surface area
[1]; Example 12, second slurry (high solvent/low anti-solvent)
  BET specific surface area, effect of slurry composition: lower drug substance BET specific surface area
[3]; Example 8
  bulk and tap density, powder of FIG. 7A (20 °C) compared to powder of FIG. 7B (50 °C): about 2 times
[3]; [11]
  Bulk Density: 0.3087 g/mL
  Tap Density: 0.4062 g/mL
[3]; [12]
  Bulk Density: 0.1265 g/mL
  Tap Density: 0.1898 g/mL

From patent publication US20140044759A1, “DRUG SUBSTANCES, PHARMACEUTICAL COMPOSITIONS AND METHODS FOR PREPARING THE SAME” (priority 2011, published 2014)
